From US20070016970A1, “Guinea pig-chymase” (priority 2005, published 2007) come the findings set out here.

Read-outs that look alike come from different tables or passages of the source.

For assay [1], the target named is T1, guinea pig chymase (Cavia porcellus, UniProt A7WPL7, G52S).
T1 construct: Thereby the mature guinea pig chymase with the correct N-terminus was formed; 26-amino acid N-terminal polypeptide with 6xHis tag and enterokinase cleavage site (N, cleaved yes); made in house
T1 sequence (A7WPL7 22-247 G52S): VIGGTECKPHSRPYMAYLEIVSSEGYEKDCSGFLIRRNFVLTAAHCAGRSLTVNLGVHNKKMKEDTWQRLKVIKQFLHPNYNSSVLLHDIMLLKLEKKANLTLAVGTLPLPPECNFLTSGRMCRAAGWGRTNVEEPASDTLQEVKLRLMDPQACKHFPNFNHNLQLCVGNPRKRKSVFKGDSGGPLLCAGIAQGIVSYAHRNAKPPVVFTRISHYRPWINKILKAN
Description: Assay for chymase inhibition (fluorogenic AAPF-AMC substrate), guinea pig chymase. Type of assay: biochemical. Particulars: recombinant guinea pig chymase; 0.02 mM AAPF-substrate, 1 nM chymase, pH 7.4, 30 min pre-incubation, room temperature; read-out: Inhibition of guinea pig chymase activity, IC50, GP chymase.

For assay [2], the target named is T2, Human Chymase coli (Homo sapiens, UniProt P23946).
T2 construct: Chymase purified from human skin mast cells was obtained from Calbiochem; purchased Calbiochem (Merck Biosciences, San Diego, Calif., USA); host or cells: human skin mast cells
T2 sequence (P23946 22-247): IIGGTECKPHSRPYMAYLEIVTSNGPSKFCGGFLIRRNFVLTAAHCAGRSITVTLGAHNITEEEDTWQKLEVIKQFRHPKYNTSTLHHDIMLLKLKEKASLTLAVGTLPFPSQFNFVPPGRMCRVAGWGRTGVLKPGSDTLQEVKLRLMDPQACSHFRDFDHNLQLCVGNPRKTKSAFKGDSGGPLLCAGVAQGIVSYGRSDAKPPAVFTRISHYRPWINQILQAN
Description: Assay for chymase inhibition (fluorogenic AAPF-AMC substrate), human chymase. In kind it is biochemical. Here is the method: The peptide was synthesized with a purity of 95% from Bachem, Bubendorf, Switzerland). Chymase purified from human skin mast cells was obtained from Calbiochem (Merck Biosciences, San Diego, Calif., USA). The assay buffer was 0.15 M NaCl, 0.05M, Tris HCl, 0.05% CHAPS, 0.1 mg/ml Heparin (Heparin sodium, Sigma, porcine intestinal mucosa), 0.02mM AAPF-substrate, 1 nM Chymase at pH 7.4. The assay was performed in 96-well plates (Packard Optiplate), with a 0.05 ml volume at room temperature. Chymase activity was indicated by the initial rate of increase in fluorescence at 340/440 nm (excitation/emission) from free 7-amino-4-methylcoumarin released from the substrate. Inhibition of the activity by inhibitory compounds was read after 30 min pre-incubation with the chymase at room temperature in assay buffer without AAPF-substrate. The assay was then started by addition of the indicated concentration of AAPF-substrate.

Broadly, the IC50 is the concentration needed to halve the response being measured. Turning to `CC(=O)NCCc1c(C(c2ccccc2)c2c(O)c3ccccc3n(C)c2=O)[nH]c2ccccc12` (stereo not shown) [SF2809-V, N-(2-{2-[(4-Hydroxy-1-methyl-2-oxo-1,2-dihydro-quinolin-3-yl)-phenyl-methyl]-1H-indol-3-yl}-ethyl)-acetamide], the IC50 in assay [1] was found to be 0.94 µM; in assay [2] (human chymase, 0.02 mM AAPF-substrate, 1 nM chymase, pH 7.4, 30 min pre-incubation, room temperature, read-out: Inhibition of chymase activity, IC50, Human Chymase coli), 0.57 µM.

As to `COC(=O)c1ccc(NS(=O)(=O)c2sc3ccc(F)cc3c2C)c(S(C)(=O)=O)c1` [TY-51076, 4-(5-Fluoro-3-methyl-benzothiophene-2-sulfonylamino)-3-methanesulfonyl-benzoic acid methyl ester], the IC50 in assay [1] amounted to 0.345 µM; in assay [2], 0.59 µM.
